mRNA knockout data for ten substances are collected here from patent publication US6846921B2, “Chimeric antisense oligonucleotides and cell transfecting formulations thereof” (Chiron Corporation, priority 1999, dated 2005).

{5'-OMe-dT} = O-methyl thymidine blocking nucleotide (W), phosphodiester-linked; {3'-3'N} = to-3' linked nucleotide blocking group (Z), phosphodiester-linked; d = 2'-deoxy (DNA); m = 2'-O-methyl

One series concerns AKT2 mRNA. Description: AKT2 mRNA knockout after transfection of chimeric antisense oligonucleotide. Format: cell-based, human. The conditions noted are these: HT1080 cells, Lipitoid 1 for transfection, incubated 24 hours, approximate level. As for the experimental part:
(§1) With the exception of the mTyr oligo (SEQ ID NO: 17-18), which was transfected into B16 melanoma cells, all oligos shown in Table 1 were transfected into HT1080 cells, using “Lipitoid 1” (see below) for transfection, and incubated for 24 hours. The table gives the approximate level of mRNA knockout observed in each case.
(§2) For each transfection mixture, a carrier molecule, preferably a lipitoid or cholesteroid, was prepared to a working concentration of 0.5 mM in water, sonicated to yield a uniform solution, and filtered through a 0.45 μm PVDF membrane. The antisense oligonucleotide was prepared to a working concentration of 100 μM in sterile Millipore water. […]
(§3) The level of target mRNA was quantitated using the Roche LightCycler™ real-time PCR machine. […]
(§4) An amplification mixture was prepared by mixing in the following order: 1×PCR buffer II, 3 mM MgCl2, 140 μM each dNTP, 0.175 pmol each oligo, 1:50,000 dil of SYBR® Green, 0.25 mg/ml BSA, 1 unit Taq polymerase, and H2O to 20 μl. (PCR buffer II is available in 10×concentration from Perkin-Elmer (Norwalk, Conn.). In 1×concentration it contains 10 mM Tris pH 8.3 and 50 mM KCl. SYBR® Green (Molecular Probes, Eugene, Oreg.) is a dye which fluoresces when bound to double stranded DNA. As double stranded PCR product is produced during amplification, the fluorescence from SYBR® Green increases.) […]

Another series relates to CHK2 mRNA. Description: CHK2 mRNA knockout after transfection of chimeric antisense oligonucleotide. Type of series: cell-based, human. Conditions: HT1080 cells, Lipitoid 1 for transfection, incubated 24 hours, approximate level. Here is the method: as §1, §2, §3, §4
A further series has as its system KRAS mRNA. The experiment in a line: KRAS mRNA knockout after transfection of chimeric antisense oligonucleotide. Type of series: cell-based, human. Conditions: HT1080 cells, Lipitoid 1 for transfection, incubated 24 hours, approximate level. Here is the method: as §1, §2, §3, §4
The next series deals with MMP2 mRNA. The experiment in a line: MMP2 mRNA knockout after transfection of chimeric antisense oligonucleotide. Format: cell-based, human. The conditions noted are these: HT1080 cells, Lipitoid 1 for transfection, incubated 24 hours, approximate level. As for the experimental part:
as §1, §2, §3, §4

A further series deals with MMP9 mRNA. Description: MMP9 mRNA knockout after transfection of chimeric antisense oligonucleotide. Conditions: HT1080 cells, Lipitoid 1 for transfection, incubated 24 hours, approximate level. Format: cell-based, human. Here is the method:
as §1, §2, §3, §4

The subject of the next series is mTyr mRNA. Description: mTyr mRNA knockout after transfection into B16 melanoma cells. Type of series: cell-based. The conditions noted are these: approximate level. Here is the method: as §1, §2, §3, §4
The next series concerns p110α mRNA. Description: p110α mRNA knockout after transfection of chimeric antisense oligonucleotide. Format: cell-based, human. Conditions: HT1080 cells, Lipitoid 1 for transfection, incubated 24 hours, approximate level. As for the experimental part: as §1, §2, §3, §4
A further series relates to p110β mRNA. Description: p110β mRNA knockout after transfection of chimeric antisense oligonucleotide. Type of series: cell-based, human. The conditions noted are these: HT1080 cells, Lipitoid 1 for transfection, incubated 24 hours, approximate level. Here is the method:
as §1, §2, §3, §4

A further series has as its system PDK1 mRNA. The experiment in a line: PDK1 mRNA knockout after transfection of chimeric antisense oligonucleotide. Type of series: cell-based, human. Conditions: HT1080 cells, Lipitoid 1 for transfection, incubated 24 hours, approximate level. Here is the method:
as §1, §2, §3, §4

A further series deals with UPAR mRNA. Description: UPAR mRNA knockout after transfection of chimeric antisense oligonucleotide. Format: cell-based, human. Conditions: HT1080 cells, Lipitoid 1 for transfection, incubated 24 hours, approximate level. As for the experimental part: as §1, §2, §3, §4

As to “2 (GTTCCCTTGCCAAGGAGTTTGAGAT; antisense; sugars from the 5' end m7 d11 m7, 5' {5'-OMe-dT}, 3' {3'-3'N}, backbone and T or U not given here; 2'-OMe blocks are phosphodiester, DNA gap is phosphorothioate) [compound 2]”, the mRNA knockout in the series with AKT2 mRNA is reported as more than 85%.

Take “4 (GACCCACTTCCCTGAAAATCCGAAA; antisense; sugars from the 5' end m7 d11 m7, 5' {5'-OMe-dT}, 3' {3'-3'N}, backbone and T or U not given here; 2'-OMe blocks are phosphodiester, DNA gap is phosphorothioate) [compound 4]”: the mRNA knockout in the series on CHK2 mRNA is more than 90%.

“12 (GCATGTGGAAGGTAGGGAGGCAAGA; antisense; sugars from the 5' end m7 d11 m7, 5' {5'-OMe-dT}, 3' {3'-3'N}, backbone and T or U not given here; 2'-OMe blocks are phosphodiester, DNA gap is phosphorothioate) [compound 12]” displayed a mRNA knockout in the series on KRAS mRNA of more than 85%.

As to “14 (GAAGCCCCACTTGCGGTCGTCAT; sugars from the 5' end m7 d9 m7, 5' {5'-OMe-dT}, 3' {3'-3'N}, backbone and T or U not given here; 2'-OMe blocks are phosphodiester, DNA gap is phosphorothioate) [compound 14]”, the mRNA knockout in the series with MMP2 mRNA is reported as more than 80%.

“16 (GCTTTCTCTCGGTACTGGAAGACGT; antisense; sugars from the 5' end m7 d11 m7, 5' {5'-OMe-dT}, 3' {3'-3'N}, backbone and T or U not given here; 2'-OMe blocks are phosphodiester, DNA gap is phosphorothioate) [compound 16]”: the mRNA knockout in the series with MMP9 mRNA is on record as more than 80%.

The substance “17 (AACCCATGAAGTTGCCTGAGCACTG; antisense; sugars from the 5' end m7 d11 m7, 5' {5'-OMe-dT}, 3' {3'-3'N}, backbone and T or U not given here; 2'-OMe blocks are phosphodiester, DNA gap is phosphorothioate) [compound 17]” showed a mRNA knockout with mTyr mRNA of more than 90%.

With “19 (ATCTGGTCGCCTCATTTGCTCAACT; antisense; sugars from the 5' end m7 d11 m7, 5' {5'-OMe-dT}, 3' {3'-3'N}, backbone and T or U not given here; 2'-OMe blocks are phosphodiester, DNA gap is phosphorothioate) [compound 19]”, the mRNA knockout with p110α mRNA was more than 95%.

“21 (TGATGAAGAGATTCCCATGCCGTCG; antisense; sugars from the 5' end m7 d11 m7, 5' {5'-OMe-dT}, 3' {3'-3'N}, backbone and T or U not given here; 2'-OMe blocks are phosphodiester, DNA gap is phosphorothioate) [compound 21]” returned a mRNA knockout with p110β mRNA of more than 90%.

In the series with PDK1 mRNA, “23 (CTGTGAGCAACAGCTGTCGTCGTCT; antisense; sugars from the 5' end m7 d11 m7, 5' {5'-OMe-dT}, 3' {3'-3'N}, backbone and T or U not given here; 2'-OMe blocks are phosphodiester, DNA gap is phosphorothioate) [compound 23]” gave a mRNA knockout of more than 90%.

Regarding “24 (GGCAGTCATTAGCAGGGTGATGGTG; antisense; sugars from the 5' end m7 d11 m7, 5' {5'-OMe-dT}, 3' {3'-3'N}, backbone and T or U not given here; 2'-OMe blocks are phosphodiester, DNA gap is phosphorothioate) [compound 24]”, the mRNA knockout in the series on UPAR mRNA was more than 80%.
